These results are taken from US10934283B2, “COMT inhibiting methods and compositions” (LIEBER INSTITUTE FOR BRAIN DEVELOPMENT, priority 2015, dated 2021).

Where a name gives a salt, the structure may show the parent alone.

This assay deals with T1, catechol-O-methyltransferase (COMT) (Homo sapiens, UniProt P21964).
T1 construct: M51A variant) was expressed in HEK 293F cells
T1 sequence (P21964 52-271 limits assumed): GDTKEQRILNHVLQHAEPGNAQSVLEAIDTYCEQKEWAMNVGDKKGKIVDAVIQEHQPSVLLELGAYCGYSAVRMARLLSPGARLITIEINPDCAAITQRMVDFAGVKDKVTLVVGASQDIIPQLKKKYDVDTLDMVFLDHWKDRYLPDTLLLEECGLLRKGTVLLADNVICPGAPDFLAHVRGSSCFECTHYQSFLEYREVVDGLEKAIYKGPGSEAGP
Briefly: COMT inhibition assay (HTRF, production of SAH from SAM). Format: biochemical. Conditions: table does not say MB-COMT or S-COMT. The protocol: The ability of compounds to inhibit the activity of catechol-O-methyltransferase (COMT) was determined by a homogenous time-resolved fluorescent (HTRF) assay (Lina et al, 2012; kit from CisBio, Codolet, France). This assay measures the production of S-adenosyl homocysteine (SAH) from the methyl donor S-adenosyl methionine. Recombinant human membrane bound COMT (MB-COMT; M51A variant) was expressed in HEK 293F cells using 293Fectin (Life Technologies, Gent, Belgium) and membranes prepared. The membranes were re-suspended in buffer (20 mM Tris/HCl pH 7; 10 mM glycerol; 2 mM MgCl2; 10 mM NaCl), aliquoted and stored at −80° C. Recombinant human soluble COMT(S-COMT), Val158 variant and a hexa-His tag on the N-terminus, was purified using Ni-NTA chromatography, the His tag removed and stored in buffer as above.
For the human MB-COMT assay, membranes (62 ng/well) were incubated with SAM (20 μM final, CisBio) and dopamine (1.5 μM final; Sigma H8502, Diegem, Belgium) in the presence or absence of varying concentrations (typically 10 concentrations ranging from 10 ? M to 0.1 nM) of compound for 40 min at 37° C. in 384-well microtiter plates (10 ? l per well final volume). The reaction was terminated by the addition of acylation buffer and the amount of SAH produced determined according to manufacturer's instructions. Specific inhibition as that inhibited by a high concentration of tolcapone and all experiments were validated using a control curve to tolcapone.
The human S-COMT assay was performed as above except that 0.15 ng enzyme/well was incubated with SAM ([…]) and dopamine (100 μM final) for 15 min at 37° C. and SAH production determined.
HTRF readings were performed using a Perkin Elmer Envision and results expressed as concentration of SAH produced using a standard curve. Results were analyzed using non-linear regression to the 4-parameter logistic equation and pIC50 (−log 10 concentration of drug which inhibits enzyme activity/SAH production by 50%) determined.
On the technique in general: In TR-FRET formats the signal depends on donor and acceptor labels being close together.
For `O=c1cc2n(cc1O)CCN(CCCc1ccccc1)C2` [Example 30, 7-hydroxy-2-(3-phenylpropyl)-1,2,3,4-tetrahydro-8H-pyrido[1,2-a]pyrazin-8-one], the “Activity range (pIC50)” value is on record as “++ (two plus signs (++) is associated with a pIC50 of from about 6 to 7)”.

As to `O=c1cc2n(cc1O)CCN(C1(c3ccccc3Cl)CC1)C2` [Example 106, 2-[1-(2-chlorophenyl)cyclopropyl]-7-hydroxy-3,4-dihydro-1H-pyrido[1,2-a]pyrazin-8-one], the “Activity range (pIC50)” value is reported as “+++ (three plus signs (+++) is associated with a pIC50 of above about 7)”.

In the case of `O=c1cc2n(cc1O)CCN(Cc1csc(-c3ccccc3)n1)C2` [Example 102, 7-hydroxy-2-[(2-phenyl-1,3-thiazol-4-yl)methyl]-1,2,3,4-tetrahydro-8H-pyrido[1,2-a]pyrazin-8-one], the “Activity range (pIC50)” value was “++ (two plus signs (++) is associated with a pIC50 of from about 6 to 7)”.

As to `O=c1cc2n(cc1O)CCN(C1CC1c1ccccc1)C2` (stereo not drawn) [Example 109, 7-hydroxy-2-(2-phenylcyclopropyl)-3,4-dihydro-1H-pyrido[1,2-a]pyrazin-8-one], the “Activity range (pIC50)” value is “++ (two plus signs (++) is associated with a pIC50 of from about 6 to 7)”.

As for `CCc1ccc(CN2CCn3cc(O)c(=O)cc3C2C2CCOCC2)cc1` (stereo not drawn) [Example 125, 2-(4-ethylbenzyl)-7-hydroxy-1-(tetrahydro-2H-pyran-4-yl)-1,2,3,4-tetrahydro-8H-pyrido[1,2-a]pyrazin-8-one], the “Activity range (pIC50)” value was “+++ (three plus signs (+++) is associated with a pIC50 of above about 7)”.

For the compound `O=c1cc2n(cc1O)CC(c1ccccc1)N(Cc1ccccc1)C2` (stereo not drawn) [Example 127, 2-benzyl-7-hydroxy-3-phenyl-1,2,3,4-tetrahydro-8H-pyrido[1,2-a]pyrazin-8-one], the “Activity range (pIC50)” value is listed as “+++ (three plus signs (+++) is associated with a pIC50 of above about 7)”.

Consider `O=c1cc2n(cc1O)CCN(Cc1ccccc1Cl)C2` [Example 58, 2-[(2-chlorophenyl)methyl]-7-hydroxy-3,4-dihydro-1H-pyrido[1,2-a]pyrazin-8-one], for which the “Activity range (pIC50)” value is recorded as “+++ (three plus signs (+++) is associated with a pIC50 of above about 7)”.

Take `CC(c1cc(Cl)ccc1Cl)N1CCn2cc(O)c(=O)cc2C1` (stereo not drawn) [Example 69, 2-[1-(2,5-dichlorophenyl)ethyl]-7-hydroxy-1,2,3,4-tetrahydro-8H-pyrido[1,2-a]pyrazin-8-one]: the “Activity range (pIC50)” value is listed as “+++ (three plus signs (+++) is associated with a pIC50 of above about 7)”.

For the compound `CC(c1cc(F)cc(F)c1F)N1CCn2cc(O)c(=O)cc2C1` (stereo not drawn) [Example 75, 7-hydroxy-2-[1-(2,3,5-trifluorophenyl)ethyl]-1,2,3,4-tetrahydro-8H-pyrido[1,2-a]pyrazin-8-one], the “Activity range (pIC50)” value is reported as “+++ (three plus signs (+++) is associated with a pIC50 of above about 7)”.

In the case of `O=c1cc2n(cc1O)CCN(Cc1c(Cl)cccc1Cl)C2` [Example 60, 2-[(2,6-dichlorophenyl)methyl]-7-hydroxy-3,4-dihydro-1H-pyrido[1,2-a]pyrazin-8-one], the “Activity range (pIC50)” value is recorded as “+++ (three plus signs (+++) is associated with a pIC50 of above about 7)”.

Take `O=c1cc2n(cc1O)CCN(Cc1cccc(OCc3ccccc3)c1)C2` [Example 53, 2-[3-(benzyloxy)benzyl]-7-hydroxy-1,2,3,4-tetrahydro-8H-pyrido[1,2-a]pyrazin-8-one]: the “Activity range (pIC50)” value was “+++ (three plus signs (+++) is associated with a pIC50 of above about 7)”.

`O=c1cc2n(cc1O)CCN(Cc1ccc(Br)cc1Cl)C2` [Example 63, 2-[(4-bromo-2-chloro-phenyl)methyl]-7-hydroxy-3,4-dihydro-1H-pyrido[1,2-a]pyrazin-8-one hydrochloride]: the “Activity range (pIC50)” value is “+++ (three plus signs (+++) is associated with a pIC50 of above about 7)”.

Regarding `CCC(c1ccccc1)N1CCn2cc(O)c(=O)cc2C1` (stereo not drawn) [Example 89, 7-hydroxy-2-(1-phenylpropyl)-1,2,3,4-tetrahydro-8H-pyrido[1,2-a]pyrazin-8-one], the “Activity range (pIC50)” value is recorded as “++ (two plus signs (++) is associated with a pIC50 of from about 6 to 7)”.

Take `CC(c1ccc(Cl)cc1)N1CCn2cc(O)c(=O)cc2C1` (stereo not drawn) [Example 68, 2-[1-(4-chlorophenyl)ethyl]-7-hydroxy-1,2,3,4-tetrahydro-8H-pyrido[1,2-a]pyrazin-8-one]: the “Activity range (pIC50)” value is “++ (two plus signs (++) is associated with a pIC50 of from about 6 to 7)”.

Turning to `Cc1cccc(N2CCn3cc(O)c(=O)cc3C2)c1` [Example 113, 7-hydroxy-2-(3-methylphenyl)-1,2,3,4-tetrahydro-8H-pyrido[1,2-a]pyrazin-8-one], the “Activity range (pIC50)” value is reported as “++ (two plus signs (++) is associated with a pIC50 of from about 6 to 7)”.

As for `CCc1ccc(CN2CCn3cc(O)c(=O)cc3C2C)cc1` (stereo not drawn) [Example 122, 2-(4-ethylbenzyl)-7-hydroxy-1-methyl-1,2,3,4-tetrahydro-8H-pyrido[1,2-a]pyrazin-8-one], the “Activity range (pIC50)” value is “+++ (three plus signs (+++) is associated with a pIC50 of above about 7)”.

For `Cc1nn(C)c(Cl)c1CN1CCn2cc(O)c(=O)cc2C1` [Example 40, 2-[(5-chloro-1,3-dimethyl-1H-pyrazol-4-yl)methyl]-7-hydroxy-1,2,3,4-tetrahydro-8H-pyrido[1,2-a]pyrazin-8-one], the “Activity range (pIC50)” value is reported as “++ (two plus signs (++) is associated with a pIC50 of from about 6 to 7)”.

Regarding `O=c1cc2n(cc1O)CCN(Cc1ccc3nsnc3c1)C2` [Example 54, 2-(2,1,3-benzothiadiazol-5-ylmethyl)-7-hydroxy-1,2,3,4-tetrahydro-8H-pyrido[1,2-a]pyrazin-8-one], the “Activity range (pIC50)” value was “++ (two plus signs (++) is associated with a pIC50 of from about 6 to 7)”.

As for `O=c1cc2n(cc1O)CCN(C1(c3ccccc3)CC1)C2` [Example 104, 7-hydroxy-2-(1-phenylcyclopropyl)-3,4-dihydro-1H-pyrido[1,2-a]pyrazin-8-one], the “Activity range (pIC50)” value is given as “+++ (three plus signs (+++) is associated with a pIC50 of above about 7)”.

As to `CCC(CC)CN1CCn2cc(O)c(=O)cc2C1` [Example 20, 2-(2-ethylbutyl)-7-hydroxy-1,2,3,4-tetrahydro-8H-pyrido[1,2-a]pyrazin-8-one], the “Activity range (pIC50)” value is listed as “++ (two plus signs (++) is associated with a pIC50 of from about 6 to 7)”.

On to `O=c1cc2n(cc1O)CC(CCc1ccccc1)N(Cc1ccccc1)C2` (stereo not drawn) [Example 132, 2-benzyl-7-hydroxy-3-(2-phenylethyl)-1,2,3,4-tetrahydro-8H-pyrido[1,2-a]pyrazin-8-one], for which the “Activity range (pIC50)” value was “+++ (three plus signs (+++) is associated with a pIC50 of above about 7)”.

For `CC(CN1CCn2cc(O)c(=O)cc2C1)c1ccccc1` (stereo not drawn) [Example 31, 7-hydroxy-2-(2-phenylpropyl)-1,2,3,4-tetrahydro-8H-pyrido[1,2-a]pyrazin-8-one], the “Activity range (pIC50)” value is recorded as “++ (two plus signs (++) is associated with a pIC50 of from about 6 to 7)”.

For the compound `CC(c1ccccc1Cl)N1CCn2cc(O)c(=O)cc2C1` (stereo not drawn) [Example 76, 2-[1-(2-chlorophenyl)ethyl]-7-hydroxy-1,2,3,4-tetrahydro-8H-pyrido[1,2-a]pyrazin-8-one], the “Activity range (pIC50)” value was “+++ (three plus signs (+++) is associated with a pIC50 of above about 7)”.

Take `O=c1cc2n(cc1O)CCN(Cc1cccc(Oc3ccccc3)c1)C2` [Example 36, 7-hydroxy-2-(3-phenoxybenzyl)-1,2,3,4-tetrahydro-8H-pyrido[1,2-a]pyrazin-8-one]: the “Activity range (pIC50)” value is on record as “+++ (three plus signs (+++) is associated with a pIC50 of above about 7)”.

`O=c1cc2n(cc1O)CCN(Cc1cccc3cccnc13)C2` [Example 14, 7-hydroxy-2-(quinolin-8-ylmethyl)-1,2,3,4-tetrahydro-8H-pyrido[1,2-a]pyrazin-8-one]: the “Activity range (pIC50)” value is given as “+++ (three plus signs (+++) is associated with a pIC50 of above about 7)”.

Consider `O=c1cc2n(cc1O)CCN(Cc1ccc(OCc3ccccc3)cc1)C2` [Example 52, 2-[4-(benzyloxy)benzyl]-7-hydroxy-1,2,3,4-tetrahydro-8H-pyrido[1,2-a]pyrazin-8-one], for which the “Activity range (pIC50)” value is “+++ (three plus signs (+++) is associated with a pIC50 of above about 7)”.

`COc1cccc(OC)c1CN1CCn2cc(O)c(=O)cc2C1` [Example 46, 2-(2,6-dimethoxybenzyl)-7-hydroxy-1,2,3,4-tetrahydro-8H-pyrido[1,2-a]pyrazin-8-one]: the “Activity range (pIC50)” value is on record as “++ (two plus signs (++) is associated with a pIC50 of from about 6 to 7)”.
